Assay results from patent US11661404B2, “Prodrug compounds activated by AKR1C3 and their use for treating hyperproliferative disorders” (priority 2018, dated 2023).
Where two headings read alike, the source gives them in different places.

Legend:
[1] = system: wild-type HCT116 colon cancer cells; assay: Anti-proliferative IC50 assay (SRB), wild-type HCT116; assay type: cell-based, human
Description: (§1) The cellular cytotoxicity of compounds of the invention resulting from AKR1C3-dependent metabolism of the compounds can readily be observed in anti-proliferative IC50 testing in isogenic cell lines that have been engineered to over-express human AKR1C3, relative to their wild-type counterparts that have been selected for their comparatively low levels of endogenous AKR1C3 expression (by Western blot analysis). The direct role of AKR1C3 in metabolism and cytotoxicity of the compounds is further supported for selected examples by repeat anti-proliferative experiments in the presence of a potent and selective small molecule inhibitor of AKR1C3, SN34037 (Flanagan et al., Bioorganic & Medicinal Chemistry (2014), 22(3), 967-977).
(§2) Four hundred cells were seeded in a volume of 100 μL in each well of a 96-well plate. The cells were left in a humidified incubator (37° C., 5% CO2) for 2 hours in order to enable attachment to the surface of the wells prior to compound addition. All compounds were prepared as stocks in DMSO and stored at −80° C. Frozen stocks of compounds were thawed immediately prior to addition to cells. Working solutions of each compound were made in α-MEM+5% FBS (v/v) at 3 times the required final concentration for the top well. The final concentration of DMSO in the α-MEM solution was ensured to not exceed 1% of the total volume. 50 μL of the working solution was added to the top wells (in duplicates) and gently mixed. The solubility of some compounds precluded the working solution in α-MEM to be 3 times the desired top well concentration. […] A 3-fold serial dilution was carried out along the plate starting from the top well. The first column of wells on the plate served as blanks (containing α-MEM+FBS) and the second column served as control wells (containing cells with no compound added). Following compound addition, the plates were incubated for 4 hours in a humidified incubator (37° C., 5% CO2).
(§3) Following the 4 hour compound exposure, the 96-well plates were washed three times by aspirating media with an Immuno Washer (Nunc) and each well replaced with 150 μL of α-MEM+5% (v/v) FBS+1% (v/v) P/S. The plates were left in a humidified incubator (37° C., 5% CO2) for 5 days to enable cell growth. The cells in 96-well plates were fixed 5 days after compound exposure by adding 50 μL of a 40% (w/v) trichloroacetic acid (TCA) solution so as to obtain a final TCA concentration of 10% in each well. The plates were left in the refrigerator (4° C.) for 1 hour and subsequently rinsed 3 times in tap water. Any excess water was left to drain and the cells were stained with 50 μL of 0.4% (w/v) sulforhodamine B (SRB). The plates with the SRB stain were left in the dark for 30 minutes. Excess stain was removed from the wells by rinsing the plates 4 times in water containing 1% (v/v) acetic acid. The stain was solubilised by adding 100 μL of 10 mM unbuffered Tris (pH 10.5) to each well and the plates were left in a shaker in a dark environment at room temperature for at least 1 hour. The absorbance values of the wells were determined by an ELx 808 Absorbance Microplate Reader (Bio-Tek Instruments, Winooski, Vt., USA), with the wavelength of the measurement filter set at 490 nm and a reference filter set at 450 nm. The absorbance of the reference filter was subtracted from the measurement filter to obtain a final absorbance of λ490-450 nm. The absorbance data was analysed and IC50 values determined by the KC4 microplate data analysis software (KC4™ V3.4, Bio-Tek).
(§4) Anti-proliferative IC50 assays were repeated as described above including the addition of 3 μM SN34037, a selective and potent small molecule inhibitor of AKR1C3.

[2] = system: HCT116 colon cancer cells engineered to over-express AKR1C3; assay: Anti-proliferative IC50 assay (SRB), HCT116 over-expressing AKR1C3; assay type: cell-based, human; conditions: for IC50 Ratio WT:AKR1C3: HCT116-WT vs HCT116-AKR1C3
Description: as §1, §2, §3, §4

[3] = system: wild-type SNU398 hepatocellular carcinoma cells; assay: Anti-proliferative IC50 assay, wild-type SNU398; assay type: cell-based
Procedure: as §2, §3, §4
(§5) Materials and methods used are as described for Example 9. […] This is a surprising finding and considerably greater than the approximately 77-fold, 270-fold and 400-fold increase in sensitivity observed for PR-104A, SN33540 and SN34454, respectively. In all cases, this increase in cytotoxicity resulting from expression of AKR1C3 can be substantially reversed by addition of an AKR1C3 inhibitor (SN34037), directly implicating metabolism of the prodrugs by AKR1C3 in the observed increase in cytotoxicity. As an important control, introduction of SN34037 had no anti-proliferative effects in wild-type SNU398 cells treated with compounds of the invention.

[4] = system: SNU398 hepatocellular carcinoma cells engineered to over-express AKR1C3; assay: Anti-proliferative IC50 assay, SNU398 over-expressing AKR1C3; assay type: cell-based, human
Procedure: as §2, §3, §4, §5

[5] = system: wild-type H460 lung cancer cells; assay: Anti-proliferative IC50 assay, wild-type H460; assay type: cell-based, human
Procedure: as §2, §3, §4
Materials and methods used are as described for Example 9.

[6] = target: T1, recombinant human AKR1C3 (Homo sapiens, UniProt P42330); assay: Kinetics assay: metabolism of prodrugs by recombinant human AKR1C3; assay type: biochemical; conditions: NADPH, pH 7.4, 37° C.
T1 construct: His6 (hexahistidine) (C); made in house; host or cells: E. coli BL21(DE3)
T1 sequence (P42330 1-323): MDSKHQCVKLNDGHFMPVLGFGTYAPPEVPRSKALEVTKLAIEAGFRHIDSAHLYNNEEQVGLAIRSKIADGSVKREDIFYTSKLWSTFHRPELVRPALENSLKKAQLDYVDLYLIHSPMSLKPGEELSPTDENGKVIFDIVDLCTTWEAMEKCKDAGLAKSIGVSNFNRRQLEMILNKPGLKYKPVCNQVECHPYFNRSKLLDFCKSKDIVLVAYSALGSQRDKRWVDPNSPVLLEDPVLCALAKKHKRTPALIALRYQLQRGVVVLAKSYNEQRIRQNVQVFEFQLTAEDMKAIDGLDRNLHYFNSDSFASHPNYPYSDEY
Procedure: E. coli BL21(DE3) cells expressing the pET22b-AKR1C3 construct with a C-terminal hexahistidine (His6) tag and constitutive promoter was generated. Colonies of these transformed E. coli cells were grown in LB agar medium containing 100 μg/mL of ampicillin. A single colony was picked the following day and grown in 400 mL batches of bacterial medium containing ampicillin (100 μg/mL) at 37° C., with continuous shaking at 200 rpm overnight. Bacterial cultures were pelleted by centrifugation (4000×g, 15 minutes) and resuspended in lysis buffer (10 mL/400 mL culture). The cells were disrupted by sonication (Sonicator 3000, Misonix) and centrifuged at 14,000 rpm for 30 minutes (at 4° C.). The cleared lysate was filtered in successive filters containing pore sizes of 1.20 μm, 0.8 μm and 0.2 μm and loaded onto a nickel-agarose affinity chromatography column on an ÄKTA Purifier system. The column was washed with 20 mL of the lysis buffer and the His6-tagged AKR1C3 protein was eluted with lysis buffer supplemented with 500 mM imidazole. The protein was further purified by a liquid chromatography gel filtration column (Superdex 200 HR16/60) using lysis buffer (supplemented with 5% v/v glycerol) and 1 mM DTT (pH 7.0) at a flow rate of 0.3 mL/min. Protein was monitored by absorbance at 280 nm, and purity of the fractions (1 mL) was assessed by SDS-PAGE. Active fractions containing the purified protein were pooled and concentrated by centrifugation (3,000×g, 4° C.) on a Vivaspin concentrator (MWCO 10,000 cutoff; GE Healthcare). The protein containing solution was supplemented with glycerol (to a final concentration of 15%, v/v) and NADP^+ was added to a final concentration of 2 mM.
Kinetic parameters of compounds of the invention were determined in a 96-well plate format. The 100 mM potassium phosphate buffer used in this assay was made with the following reagents to a pH of 7.4: • 0.5 M K2HPO4— 8.2 mL • 0.5 M KH2PO4— 1.8 mL • BSApowder—25 mg • Milli Q water—40 mL
For the assay, 2 μL of varying substrate concentrations were incubated with 94 μL of the potassium phosphate buffer and 2 μL of 5 mM NADPH for 5 minutes in the pre-warmed (37° C.) plate chamber of a Molecular Devices SpectraMax M2 plate reader. Purified AKR1C3 enzyme (2 μL) was added to a final concentration of […] in each well using an Eppendorf electronic multi-channel pipette. Absorbance measurements were recorded immediately upon addition of enzyme over a period of 5 minutes at a wavelength of 400 nm. Absorbance changes for each compound concentration were plotted against time to obtain the rate of absorbance change over the 5 minute period. The rate of absorbance change was then plotted against the compound concentration and non-linear regression analysis and Michaelis-Menten curve fitting performed on GraphPadPrism (version 5.00 for Windows, GraphPad Software, San Diego Calif. USA) in order to determine kinetic parameters of compounds.

[7] = Homo sapiens, HCT-116, 4 hour exposure, 5 days growth, read-out: HCT116-WT IC50
[8] = with 3 μM SN34037, read-out: HCT116-WT + AKR1C3 Inhibitor IC50
[9] = Homo sapiens, HCT-116, 4 hour exposure, 5 days growth, read-out: HCT116-AKR1C3 IC50
[10] = with 3 μM SN34037, read-out: HCT116-AKR1C3 + AKR1C3 Inhibitor IC50
[11] = Homo sapiens, SNU-398; read-out: SNU398-WT Anti-proliferative IC50
[12] = Homo sapiens, SNU-398; with 3 μM SN34037; read-out: SNU398-WT +AKR1C3 Inhibitor Anti-proliferative IC50
[13] = Homo sapiens, SNU-398; read-out: SNU398-AKR1C3 Anti-proliferative IC50
[14] = Homo sapiens, SNU-398; with 3 μM SN34037; read-out: SNU398-AKR1C3 +AKR1C3 Inhibitor Anti-proliferative IC50
[15] = Homo sapiens, NCI-H460; read-out: H460-WT Anti-proliferative IC50
[16] = Homo sapiens, NCI-H460; with 3 μM SN34037; read-out: H460-WT +AKR1C3 Inhibitor Anti-proliferative IC50
[17] = Homo sapiens, HCT-116, read-out: HCT116-WT IC50
[18] = Homo sapiens, HCT-116, read-out: HCT116-AKR1C3 IC50

CS(=O)(=O)OCCN(CCOS(C)(=O)=O)c1ccc([N+](=O)[O-])cc1S(=O)(=O)N1CCNCC1 [Compound 640, ((4-nitro-2-(piperazin-1-ylsulfonyl)phenyl)azanediyl)bis(ethane-2,1-diyl) dimethanesulfonate]
IC50 [1, 7]: 4.22 µM | IC50 [1, 8]: 4.1 µM | IC50 Ratio WT:AKR1C3 [2]: 469 | IC50 [2, 9]: 0.009 µM | IC50 [2, 10]: 2.06 µM | IC50 [3, 11]: 8.47 µM | IC50 [3, 12]: 8.49 µM | IC50 [4, 13]: 0.026 µM | IC50 [4, 14]: 6.54 µM | IC50 [5, 15]: 0.027 µM | IC50 [5, 16]: 5.88 µM

CCN1CCN(S(=O)(=O)c2cc([N+](=O)[O-])ccc2N(CCOS(C)(=O)=O)CCOS(C)(=O)=O)CC1 [Compound 642, ((2-((4-ethylpiperazin-1-yl)sulfonyl)-4-nitrophenyl)azanediyl)bis(ethane-2,1-diyl) dimethanesulfonate]
IC50 [1, 17]: 1.93 µM | IC50 ([1]; read-out: HCT116-WT + AKR1C3 Inhibitor IC50, with 3 μM SN34037): 2.37 µM | IC50 Ratio WT:AKR1C3 [2]: 1930 | IC50 [2, 18]: 0.001 µM | IC50 ([2]; read-out: HCT116-AKR1C3 + AKR1C3 Inhibitor IC50, with 3 μM SN34037): 0.828 µM | IC50 ([3]; Homo sapiens, SNU-398, read-out: SNU398-WT +AKR1C3 Inhibitor Anti-proliferative IC50): 12.1 µM | IC50 ([3]; Homo sapiens, SNU-398, read-out: SNU398-WT Anti-proliferative IC50): 10.3 µM | IC50 ([4]; Homo sapiens, SNU-398, read-out: SNU398-AKR1C3 +AKR1C3 Inhibitor Anti-proliferative IC50): 1.28 µM | IC50 ([4]; Homo sapiens, SNU-398, read-out: SNU398-AKR1C3 Anti-proliferative IC50): 0.002 µM | IC50 ([5]; Homo sapiens, NCI-H460, read-out: H460-WT +AKR1C3 Inhibitor Anti-proliferative IC50): 2.24 µM | IC50 ([5]; Homo sapiens, NCI-H460, read-out: H460-WT Anti-proliferative IC50): 0.001 µM

CS(=O)(=O)OCCN(CCOS(C)(=O)=O)c1ccc([N+](=O)[O-])cc1S(=O)(=O)N1CCN(CC(O)CO)CC1 (stereo not drawn) [Compound 644, ((2-((4-(2,3-dihydroxypropyl)piperazin-1-yl)sulfonyl)-4-nitrophenyl)azanediyl)bis(ethane-2,1-diyl) dimethanesulfonate]
IC50 [1, 7]: 107 µM | IC50 [1, 8]: 112 µM | IC50 Ratio WT:AKR1C3 [2]: 978 | IC50 [2, 9]: 0.109 µM | IC50 [2, 10]: 47 µM | IC50 [3, 11]: 73.8 µM | IC50 [3, 12]: 68.4 µM | IC50 [4, 13]: 0.262 µM | IC50 [4, 14]: 63.7 µM | IC50 [5, 15]: 0.387 µM | IC50 [5, 16]: 88.3 µM

O=C(c1cc([N+](=O)[O-])cc([N+](=O)[O-])c1N(CCBr)CCBr)N1CCc2ccccc2C1 [SN34947, reference compound]
Km [6]: 7.8 µM | kcat [6]: 23.8 s⁻¹ | IC50 [1, 17]: 66.8 µM | IC50 Ratio WT:AKR1C3 [2]: 28 | IC50 [2, 18]: 2.41 µM

N#Cc1cccc2c1CCN(C(=O)c1cc([N+](=O)[O-])cc([N+](=O)[O-])c1N(CCBr)CCBr)C2 [SN34951, reference compound]
Km [6]: 8.5 µM | kcat [6]: 29.0 s⁻¹ | IC50 [1, 17]: > 150 µM | IC50 Ratio WT:AKR1C3 [2]: >38 | IC50 [2, 18]: 3.97 µM

CS(=O)(=O)OCCN(CCBr)c1c(C(=O)N2CCN(c3ccccc3)CC2)cc([N+](=O)[O-])cc1[N+](=O)[O-] [SN35028, reference compound]
Km [6]: 7.3 µM | kcat [6]: 29.1 s⁻¹ | IC50 [1, 17]: > 150 µM | IC50 Ratio WT:AKR1C3 [2]: >36 | IC50 [2, 18]: 4.15 µM
